Here are results for 5 compounds from patent US20230398101A1, “Co-agents as Therapy Against Anaerobic Pathogens” (priority 2022, published 2023).

Common to all, as to test: Aerobic agar-dilution AST of facultative anaerobes (MIC, checkerboard FIC)
Type in all cases: cell-based

One assay relates to Staphylococcus aureus. Details: MIC (Table 10C, head prints neither MIC nor unit): unit not given beside the values. The conditions noted are these: for MIC (Table 10C, head prints neither MIC nor unit): strain (MR) 920516, aerobic; for MIC: Staphylococcus aureus.
The next assay relates to Pseudomonas aeruginosa. The conditions noted are these: Pseudomonas aeruginosa, Pseudomonas aeruginosa 945748; read-out: MIC.
For the next assay, the system named is Acinetobacter baumannii. The conditions noted are these: Acinetobacter baumannii 919899, read-out: MIC.
The subject of the next assay is Enterococcus faecalis. The note with it: Enterococcus faecalis.

SMILES strings stand for the structures. Bounds are passed on as bounds.

Regarding `Cc1cc(NS(=O)(=O)c2ccc(N)cc2)no1` [S, sulfamethoxazole], the “MIC (Table 10C, head prints neither MIC nor unit)” value with Staphylococcus aureus is given as more than 608.
In the case of `CCCCCCCCCCNCCN[C@@]1(C)C[C@H](O[C@H]2[C@H](Oc3c4cc5cc3Oc3ccc(cc3Cl)[C@@H](O)[C@@H](NC(=O)[C@@H](CC(C)C)NC)C(=O)N[C@@H](CC(N)=O)C(=O)N[C@H]5C(=O)N[C@H]3C(=O)N[C@H](C(=O)N[C@H](C(=O)O)c5cc(O)c(CNCP(=O)(O)O)c(O)c5-c5cc3ccc5O)[C@H](O)c3ccc(c(Cl)c3)O4)O[C@H](CO)[C@@H](O)[C@@H]2O)O[C@@H](C)[C@H]1O` [telavancin], the MIC with Staphylococcus aureus came out at 0.25 µg/mL; with Staphylococcus aureus (ATCC33591) it was 0.125 µg/mL.
As for `CC(C)c1ccc(Cn2ccc3c4c(N)nc(NC5CC5)nc4ccc32)cc1` [Q], the “MIC (Table 10C, head prints neither MIC nor unit)” value in the assay on Staphylococcus aureus was 32.
Consider `C[C@@H](O)[C@H]1C(=O)N2C(C(=O)O)=C(S[C@@H]3CN[C@H](C(=O)N(C)C)C3)[C@H](C)[C@H]12` [meropenem], for which the MIC is 8 µg/mL with Pseudomonas aeruginosa and more than 64 µg/mL with Acinetobacter baumannii.
As for `CN[C@H](CC(C)C)C(=O)N[C@H]1C(=O)N[C@@H](CC(N)=O)C(=O)N[C@H]2C(=O)N[C@H]3C(=O)N[C@H](C(=O)N[C@H](C(=O)O)c4cc(O)cc(O)c4-c4cc3ccc4O)[C@H](O)c3ccc(c(Cl)c3)Oc3cc2cc(c3O[C@@H]2O[C@H](CO)[C@@H](O)[C@H](O)[C@H]2O[C@H]2C[C@](C)(N)[C@H](O)[C@H](C)O2)Oc2ccc(cc2Cl)[C@H]1O` [vancomycin], the MIC with Enterococcus faecalis was 1 µg/mL; with Enterococcus faecalis (ATCC51559), more than 32 µg/mL; with Staphylococcus aureus it was 1 µg/mL; with Staphylococcus aureus (ATCC33591), 2 µg/mL.
